The test system of data set [1] is Gli1 protein in A549 cells. The data set is described as follows: Western blot of Gli1 in A549 cells, 24 h. The conditions noted are these: A549, 24 h, immunoblot. It is filed as cell-based, human. The method, then: In order to verify that compounds 11a and 11b inhibit the proliferation of A549 and DU-145 through Hh inhibition, we monitored the expression of Hh target genes in these cell lines (Figure 2). […] The decreased protein expression of Gli1 targets Cyclin D1, N-Myc, and Bcl-2 strongly indicates inhibition of its transcriptional activity, and their downregulation correlates with the data obtained by the U-87 MG-Gli-FLuc reporter assay. Importantly, these proteins are involved in cell cycle progression, proliferation, and survival. N-Myc amplification or deregulation of transcription, stability, and degradation is associated with many malignancies,[34] and the observed downregulation induced by 11a and 11b may reduce its oncogenic effect.
Figure 2 Effect of compounds 11a and 11b on the protein expression of the Gli1 transcription factor and its transcriptional targets in A549 (A) and DU145 (B) cells following 24 h of incubation. […]
Cells were washed with PBS and lysed on ice in 200 μL of RIPA (Radioimmunoprecipitation Assay) buffer for 30 min. Then, cell lysates were clarified by centrifugation (15000 rpm, 20 min, 4 °C), and the protein concentration in the collected supernatants was determined using a BCA method (Bicinchoninic Acid test). […] Luminescence signal detection was performed by using an Odyssey FC instrument (LI-COR Biosciences).

A short description of data set [2]: Parallel Artificial Membrane Permeability Assay (PAMPA). The data set is classed as in vitro ADME. The following applies: read-out: PAMPA log Pe (converted). From the text: The Parallel Artificial Membrane Permeability Assay (PAMPA) has emerged as a primary screen for determining passive transcellular permeability. […] The Caco-2 and MDCK-MDR1 permeability assays are established models of intestinal[37] and blood-brain barriers, respectively.[38]
A general note: PAMPA measures passive passage across an artificial lipid membrane.

Data set [3] concerns Hh signaling (Gli Reporter-NIH3T3, Gli-responsive FLuc). The data set is described as follows: Gli Reporter-NIH3T3 luciferase assay, mSHH or SAG induced. The data set is classed as cell-based. The conditions noted are these: mean ± SD, n=3. The method, then: To further validate the effect of new triterpenes on Hh signaling, we used the commercial reporter cell line NIH3T3–Gli reporter, which expresses the firefly luciferase (FLuc) gene under the control of a Gli-responsive element.
Gli Reporter-NIH3T3 (BPS Bioscience) cells were cultured in DMEM medium supplemented with 10% iron-supplemented bovine calf serum and under the selection pressure of Geneticin (500 μg/mL) at 37 °C in an atmosphere of 5% CO2 with 95% humidity. The Gli Reporter-NIH3T3 cell line expresses the firefly luciferase (FLuc) gene under the control of a Gli responsive element stably integrated into NIH3T3 cells. The cell line was validated through response to mSHH stimulation and the effect of commercially available Hh inhibitors (Cyclopamine). The assay was performed in 384-well white opaque microplates. Gli Reporter-NIH3T3 cells were transferred to Opti-MEM medium with a reduced content of 0.5% (v/v) iron-supplemented bovine calf serum, supplemented with a 1% solution of nonessential amino acids, 1 mmol/L sodium pyruvate, and 10 mmol/L HEPES, and seeded on the panel in a volume of 25 μL of cell suspension per well at a concentration of 2.5 × 10^5/mL. The following day, compounds were transferred at the concentration range of 16–0.25 μmol/L (dilution factor 2) and incubated for 2 h. Then, the mSHH ligand at concentrations of 0.25 and 0.5 μg/mL and SAG (a synthetic SMO agonist) at concentrations of 2 and 4 nmol/L were added to the wells. Controls representing DMSO-treated cells were also included at a concentration of 0.1% (v/v). Cells were incubated for another 24–30 h and then kept for 30 min at room temperature, and finally, 25 μL of Britelite plus reagent was added to each well. Plates were placed on a shaker to achieve complete cell lysis, and luminescence was measured after 3 min on an EnVision plate reader.

[4] abbreviates: SAG (SMO agonist) 2 nM after 2 h preincubation, read-out: IC50 SAG stimulation 2 nM.
Where [5] appears, read: SAG (SMO agonist) 4 nM after 2 h preincubation, read-out: IC50 SAG stimulation 4 nM.
The mark [6] stands for this setting: mSHH 0.25 μg/mL after 2 h preincubation, read-out: IC50 mSHH stimulation 0.25 (μg/mL).
[7] abbreviates: mSHH 0.5 μg/mL after 2 h preincubation, read-out: IC50 mSHH stimulation 0.5 (μg/mL).

Molecules are shown by their SMILES. Where two headings read alike, the source gives them in different places.

With `C=C(C)[C@@H]1CC[C@]2(C(=O)O)CC[C@]3(C)C(CCC4[C@@]5(C)C=C(c6ccco6)C(=O)C(C)(C)C5CC[C@]43C)C12` (stereo partly drawn) [Compound 11a, 2-(Furan-2-yl)-3-oxolupa-1,20(29)-dien-28-oic acid], the “Endogenous Gli1 protein level” value in data set [1] is listed as “inhibit the endogenous Gli1 protein level in a dose-dependent manner”. In addition, in data set [2], the Papp is 0.0158 ×10⁻⁶ cm/s. Besides, the IC50 worked out at 4.5 ± 0.6 µM in data set [3] (setting [4]), 3.8 ± 0.4 µM in data set [3] (setting [5]), 3.5 ± 0.5 µM in data set [3] (setting [6]) and 1.9 ± 0.2 µM in data set [3] (setting [7]).

Turning to `C=C(C)[C@@H]1CC[C@]2(C(=O)O)CC[C@]3(C)C(CCC4[C@@]5(C)C=C(c6ccoc6)C(=O)C(C)(C)C5CC[C@]43C)C12` (stereo partly drawn) [Compound 11b, 2-(Furan-3-yl)-3-oxolupa-1,20(29)-dien-28-oic acid], in data set [1], the “Endogenous Gli1 protein level” value was “inhibit the endogenous Gli1 protein level in a dose-dependent manner”. Also, the Papp in data set [2] is 0.0162 ×10⁻⁶ cm/s. Further, the IC50 in data set [3] (setting [4]) worked out at 3.5 ± 0.2 µM; in data set [3] (setting [5]), 4.1 ± 0.4 µM; in data set [3] (setting [6]), 3.2 ± 0.3 µM; in data set [3] (setting [7]), 2.4 ± 0.3 µM.

(Values after PMC11923649, “Novel C-2 Aromatic Heterocycle-Substituted Triterpenoids Inhibit Hedgehog Signaling in GLI1 Overexpression Cancer Cells” (ACS Omega, 2025).)
